Results published in patent US20250026752A1, “POSITIVE ALLOSTERIC MODULATORS OF THE MUSCARINIC ACETYLCHOLINE RECEPTOR M4” (Vanderbilt University, priority 2021, published 2025).
Like-named read-outs stand apart in the source and are kept apart here.

Target: T1, human mAChR M4 (Homo sapiens, UniProt P08173)
T1 construct: expressed in transfected cells; host or cells: CHO-K1 (ATCC), stably expressing hM4 and Gqi5
T1 sequence (P08173 1-479): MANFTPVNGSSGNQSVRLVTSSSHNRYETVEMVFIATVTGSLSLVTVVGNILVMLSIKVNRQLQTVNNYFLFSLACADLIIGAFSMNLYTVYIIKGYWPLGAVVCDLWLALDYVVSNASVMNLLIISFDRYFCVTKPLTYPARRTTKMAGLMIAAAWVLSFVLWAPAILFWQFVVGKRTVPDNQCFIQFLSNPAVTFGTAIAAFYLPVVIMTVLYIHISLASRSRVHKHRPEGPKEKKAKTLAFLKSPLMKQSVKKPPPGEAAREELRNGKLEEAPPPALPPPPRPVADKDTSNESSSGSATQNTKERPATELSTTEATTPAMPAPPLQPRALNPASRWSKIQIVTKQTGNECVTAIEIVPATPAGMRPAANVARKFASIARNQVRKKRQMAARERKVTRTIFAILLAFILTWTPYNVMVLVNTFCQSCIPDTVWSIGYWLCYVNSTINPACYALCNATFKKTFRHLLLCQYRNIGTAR
Experiment: mAChR M4 cell-based functional assay: calcium flux (Fluo-4, FDSS), positive allosteric modulator activity on the EC20 acetylcholine response, hM4-Gqi5 CHO-K1 cells
Set-up: Emax: dose or concentration left out as unconfirmed
Conditions: for Emax at 30 µM: CHO-K1, human M4, % ACh maximum at 30 μM; for EC50: PAM activity on EC20 acetylcholine response, calcium flux
How it was run: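 Potentiation was taken as the concentration-dependent rise in the EC20 acetylcholine calcium response, fitted by a four-parameter logistic with EC20 as baseline. Fluo-4-loaded hM4-Gqi5 CHO-K1 cells received 11-point, threefold-diluted compound before acetylcholine at 144 s; FDSS read at 1 Hz.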

[1] = human M4, read-out: Human M4 EC50

SMILES | Emax at 30 µM [%] | EC50 [1] [nM] | Emax (CHO-K1) [%] | EC50 (Human M4 EC50, human M4) [nM]
Cc1nc(N2CCc3ncc(-c4cn(C)nc4C)cc3C2)c2cc(C(F)(F)F)ccc2n1 [Compound 57, 4-[3-(1,3-dimethylpyrazol-4-yl)-7,8-dihydro-5H-1,6-naphthyridin-6-yl]-2-methyl-6-(trifluoromethyl)quinazoline] | 59 | 2890 | – | –
Cc1ccc(-c2cnc3c(c2)CN(c2nc(C)nc4ccc(C(F)(F)F)cc24)CC3)cn1 [Compound 58, 2-methyl-4-[3-(6-methyl-3-pyridyl)-7,8-dihydro-5H-1,6-naphthyridin-6-yl]-6-(trifluoromethyl)quinazoline] | 45 | 1220 | – | –
Cc1nc(N2CCc3ncc(-c4cnn(C5CC5)c4)cc3C2)c2cc(C(F)(F)F)ccc2n1 [Compound 59, 4-[3-(1-cyclopropylpyrazol-4-yl)-7,8-dihydro-5H-1,6-naphthyridin-6-yl]-2-methyl-6-(trifluoromethyl)quinazoline] | 58 | 1970 | – | –
COc1cc2c(N3CCc4ncc(-c5cn(C)nc5C)cc4C3)nc(Cl)nc2cc1F [Compound 60, 2-chloro-4-[3-(1,3-dimethylpyrazol-4-yl)-7,8-dihydro-5H-1,6-naphthyridin-6-yl]-7-fluoro-6-methoxy-quinazoline] | 52 | 510 | – | –
COc1cc2c(N3CCc4ncc(-c5cn(C)nc5C)cc4C3)nc(C)nc2cc1F [Compound 61, 4-[3-(1,3-dimethylpyrazol-4-yl)-7,8-dihydro-5H-1,6-naphthyridin-6-yl]-7-fluoro-6-methoxy-2-methyl-quinazoline] | 57 | 450 | – | –
Cn1cc(-c2cnc3c(c2)CN(c2nc(Cl)nc4cc(Cl)c(F)cc24)CC3)cn1 [Compound 62, 2,7-dichloro-6-fluoro-4-[3-(1-methylpyrazol-4-yl)-7,8-dihydro-5H-1,6-naphthyridin-6-yl]quinazoline] | 34 | 410 | – | –
Cc1ccc(-c2cnc3c(c2)CN(c2nc(Cl)nc4cc(Cl)c(F)cc24)CC3)cn1 [Compound 63, 2,7-dichloro-6-fluoro-4-[3-(6-methyl-3-pyridyl)-7,8-dihydro-5H-1,6-naphthyridin-6-yl]quinazoline] | 26 | 400 | – | –
Cc1cn(C)nc1-c1cnc2c(c1)CN(c1nc(C(F)(F)F)nc3ccc(F)cc13)CC2 [Compound 64, 4-[3-(1,4-dimethylpyrazol-3-yl)-7,8-dihydro-5H-1,6-naphthyridin-6-yl]-6-fluoro-2-(trifluoromethyl)quinazoline] | 69 | 510 | – | –
Cc1ncc(-c2cnc3c(c2)CN(c2nc(C(F)(F)F)nc4ccc(F)cc24)CC3)s1 [Compound 66, 5-[6-[6-fluoro-2-(trifluoromethyl)quinazolin-4-yl]-7,8-dihydro-5H-1,6-naphthyridin-3-yl]-2-methyl-thiazole] | 35 | 810 | – | –
Fc1ccc2ncnc(N3CCc4ncc(-n5cccn5)cc4C3)c2c1 [Compound 68, 6-fluoro-4-(3-pyrazol-1-yl-7,8-dihydro-5H-1,6-naphthyridin-6-yl)quinazoline] | – | – | 88 | 220
Cc1nc(N2CCc3ncc(Nc4cccnc4F)cc3C2)c2cc(F)ccc2n1 [Compound 70, 6-(6-fluoro-2-methyl-quinazolin-4-yl)-N-(2-fluoro-3-pyridyl)-7,8-dihydro-5H-1,6-naphthyridin-3-amine] | 85 | 130 | – | –
Cc1nc(N2CCc3ncc(Nc4cccnc4F)cc3C2)c2cc(Cl)ccc2n1 [Compound 72, 6-(6-chloro-2-methyl-quinazolin-4-yl)-N-(2-fluoro-3-pyridyl)-7,8-dihydro-5H-1,6-naphthyridin-3-amine] | 84 | 490 | – | –

Further lines, with some results ahead:

Emax at 30 µM [%] | EC50 [1] [nM] | SMILES | Emax (CHO-K1) [%] | EC50 (Human M4 EC50, human M4) [nM]
52 | 1380 | Fc1ccc2nc(C(F)(F)F)nc(N3CCc4ncc(-c5ccn(C6CC6)n5)cc4C3)c2c1 [Compound 65, 4-[3-(1-cyclopropylpyrazol-3-yl)-7,8-dihydro-5H-1,6-naphthyridin-6-yl]-6-fluoro-2-(trifluoromethyl)quinazoline] | – | –
55 | 660 | Cc1ccc(-c2cnc3c(c2)CN(c2nc(C(F)(F)F)nc4ccc(F)cc24)CC3)cn1 [Compound 67, 6-fluoro-4-[3-(6-methyl-3-pyridyl)-7,8-dihydro-5H-1,6-naphthyridin-6-yl]-2-(trifluoromethyl)quinazoline] | – | –
71 | 120 | Fc1ccc2ncnc(N3CCc4ncc(N5CCC(C(F)(F)F)n6nccc65)cc4C3)c2c1 (stereo not drawn) [Compound 69, 6-fluoro-4-[3-[7-(trifluoromethyl)-6,7-dihydro-5H-pyrazolo[1,5-a]pyrimidin-4-yl]-7,8-dihydro-5H-1,6-naphthyridin-6-yl]quinazoline] | – | –
82 | 140 | Fc1ncccc1Nc1cnc2c(c1)CN(c1ncnc3ccc(Cl)cc13)CC2 [Compound 71, 6-(6-chloroquinazolin-4-yl)-N-(2-fluoro-3-pyridyl)-7,8-dihydro-5H-1,6-naphthyridin-3-amine] | – | –
97 | 90 | Cc1nc(N2CCc3ncc(N4CCCn5nccc54)cc3C2)c2cc(F)ccc2n1 [Compound 73, 4-[3-(6,7-dihydro-5H-pyrazolo[1,5-a]pyrimidin-4-yl)-7,8-dihydro-5H-1,6-naphthyridin-6-yl]-6-fluoro-2-methyl-quinazoline] | – | –
82 | 10 | Fc1ccc2ncnc(N3CCc4ncc(N5CCCn6nccc65)cc4C3)c2c1 [Compound 74, 4-[3-(6,7-dihydro-5H-pyrazolo[1,5-a]pyrimidin-4-yl)-7,8-dihydro-5H-1,6-naphthyridin-6-yl]-6-fluoro-quinazoline] | – | –
100 | 30 | Cn1nccc1Nc1cnc2c(c1)CN(c1ncnc3ccc(F)cc13)CC2 [Compound 75, 6-(6-fluoroquinazolin-4-yl)-N-(2-methylpyrazol-3-yl)-7,8-dihydro-5H-1,6-naphthyridin-3-amine] | – | –
98 | 30 | Fc1ccc2ncnc(N3CCc4ncc(N5CCOc6ncccc65)cc4C3)c2c1 [Compound 76, 1-[6-(6-fluoroquinazolin-4-yl)-7,8-dihydro-5H-1,6-naphthyridin-3-yl]-2,3-dihydropyrido[2,3-b][1,4]oxazine] | – | –
127 | 70 | COc1ccc2ncnc(N3CCc4ncc(N5CCCn6nccc65)cc4C3)c2c1 [Compound 77, 4-[3-(6,7-dihydro-5H-pyrazolo[1,5-a]pyrimidin-4-yl)-7,8-dihydro-5H-1,6-naphthyridin-6-yl]-6-methoxy-quinazoline] | – | –
129 | 30 | Cc1ccc2ncnc(N3CCc4ncc(N5CCCn6nccc65)cc4C3)c2c1 [Compound 78, 4-[3-(6,7-dihydro-5H-pyrazolo[1,5-a]pyrimidin-4-yl)-7,8-dihydro-5H-1,6-naphthyridin-6-yl]-6-methyl-quinazoline] | – | –
105 | 250 | COc1ccc2ncnc(N3CCc4ncc(N5CCOc6ncccc65)cc4C3)c2c1 [Compound 79, 1-[6-(6-methoxyquinazolin-4-yl)-7,8-dihydro-5H-1,6-naphthyridin-3-yl]-2,3-dihydropyrido[2,3-b][1,4]oxazine] | – | –
98 | 500 | COc1ccc2ncnc(N3CCc4ncc(Nc5ccnn5C)cc4C3)c2c1 [Compound 80, 6-(6-methoxyquinazolin-4-yl)-N-(2-methylpyrazol-3-yl)-7,8-dihydro-5H-1,6-naphthyridin-3-amine] | – | –
